From the NIST ThermoML archive (doi:10.1016/j.jct.2012.11.027)

Assay: xn = mol fraction of the nth substance listed
Conditions: 101 kPa, Liquid, Linear variable-path acoustic interferometer

C=CC(=O)OC [methyl propenoate] + CCCCCCCCO
speed of sound [m/s]
Conditions | 288.15 K | 293.15 K | 298.15 K | 303.15 K | 308.15 K | 313.15 K | 318.15 K
x1 = 0.077 | 1371.5 | 1352.2 | 1331.5 | 1310.8 | 1292.2 | 1274.2 | 1256.8
x1 = 0.1554 | 1352.2 | 1331.8 | 1311.5 | 1290.9 | 1271.8 | 1253.4 | 1235.1
x1 = 0.2304 | 1333.7 | 1313.6 | 1293.4 | 1273.1 | 1253.6 | 1234.9 | 1216.4
x1 = 0.3053 | 1316.3 | 1296.3 | 1276 | 1255.8 | 1236 | 1217.5 | 1198.9
x1 = 0.383 | 1299.9 | 1280 | 1259.7 | 1239.6 | 1219.7 | 1200.9 | 1182.4
x1 = 0.4603 | 1285 | 1265.1 | 1244.7 | 1224.5 | 1204.5 | 1185.9 | 1167.5
x1 = 0.5321 | 1272.6 | 1252.5 | 1232.1 | 1212.1 | 1192.1 | 1173.4 | 1154.8
x1 = 0.6038 | 1262.4 | 1242 | 1221.6 | 1201.3 | 1181.1 | 1162.1 | 1143.1
x1 = 0.6724 | 1253.7 | 1233.3 | 1212.9 | 1192.3 | 1171.7 | 1152.5 | 1132.8
x1 = 0.741 | 1246.5 | 1225.8 | 1205.4 | 1184.7 | 1163.6 | 1143.8 | 1123.6
x1 = 0.8052 | 1241.4 | 1220.1 | 1199.4 | 1178.5 | 1156.7 | 1136.5 | 1115.7
x1 = 0.8698 | 1236.3 | 1214.7 | 1193.7 | 1172.5 | 1150.2 | 1129.6 | 1108.3
x1 = 0.935 | 1231.8 | 1209.6 | 1188.3 | 1166.8 | 1144.2 | 1123.1 | 1101.5
x1 = 1 | 1226.6 | 1204.6 | 1183.6 | 1162.2 | 1139.1 | 1117.8 | 1095.7

C=CC(=O)OC [methyl propenoate] + CCCCCCO
speed of sound [m/s]
Conditions | 288.15 K | 293.15 K | 298.15 K | 303.15 K | 308.15 K | 313.15 K | 318.15 K
x1 = 0.077 | 1325.5 | 1306.4 | 1290.5 | 1272 | 1256.5 | 1236.3 | 1216.5
x1 = 0.1542 | 1311.1 | 1291.6 | 1275.3 | 1256.1 | 1240.1 | 1219.7 | 1199.7
x1 = 0.2299 | 1297.1 | 1277.5 | 1260.7 | 1241.8 | 1225.1 | 1204.8 | 1185.1
x1 = 0.3057 | 1284.1 | 1264.4 | 1247.4 | 1228.5 | 1211.6 | 1191.6 | 1171.8
x1 = 0.3834 | 1272 | 1252.3 | 1235.1 | 1216.4 | 1199.1 | 1179.4 | 1159.6
x1 = 0.4612 | 1261.7 | 1242 | 1224.5 | 1205.6 | 1187.9 | 1168.1 | 1148.2
x1 = 0.534 | 1253.5 | 1233.6 | 1215.9 | 1196.7 | 1178.5 | 1158.6 | 1138.4
x1 = 0.6068 | 1246.6 | 1226.4 | 1208.2 | 1188.7 | 1169.8 | 1149.7 | 1129.3
x1 = 0.672 | 1241.3 | 1220.8 | 1202.2 | 1182.4 | 1162.8 | 1142.4 | 1121.7
x1 = 0.737 | 1237.3 | 1216.6 | 1197.5 | 1177.4 | 1157 | 1136.3 | 1115.2
x1 = 0.8046 | 1233.9 | 1212.9 | 1193.4 | 1172.8 | 1151.6 | 1130.6 | 1109.1
x1 = 0.8722 | 1231.2 | 1209.8 | 1189.8 | 1168.7 | 1146.7 | 1125.4 | 1103.5
x1 = 0.9361 | 1229.1 | 1207.4 | 1186.7 | 1165.4 | 1142.6 | 1121.2 | 1099.4
x1 = 1 | 1226.6 | 1204.6 | 1183.6 | 1162.2 | 1139.1 | 1117.8 | 1095.7

C=CC(=O)OC [methyl propenoate] + CCCCCCCCCCO
speed of sound [m/s]
Conditions | 288.15 K | 293.15 K | 298.15 K | 303.15 K | 308.15 K | 313.15 K | 318.15 K
x1 = 0.0762 | 1388.2 | 1370.2 | 1352.1 | 1333.5 | 1318.1 | 1299.5 | 1284
x1 = 0.1523 | 1366.7 | 1348.2 | 1330.6 | 1312.1 | 1295.8 | 1276.3 | 1259.4
x1 = 0.2225 | 1346.9 | 1328.3 | 1310.1 | 1291.2 | 1275.1 | 1255.2 | 1238.1
x1 = 0.3073 | 1324.4 | 1304.9 | 1286.5 | 1268.1 | 1251.5 | 1231.5 | 1214.4
x1 = 0.3848 | 1304.7 | 1285.2 | 1267 | 1248.2 | 1231.2 | 1211.3 | 1194.3
x1 = 0.4622 | 1286.4 | 1267 | 1248.9 | 1230 | 1212.8 | 1193.1 | 1175.6
x1 = 0.5356 | 1270.8 | 1251.3 | 1233 | 1214.6 | 1197 | 1177.4 | 1160
x1 = 0.6092 | 1257.7 | 1238.3 | 1219.8 | 1201.2 | 1183 | 1163.6 | 1145.6
x1 = 0.6768 | 1247.2 | 1227.9 | 1209.4 | 1190.4 | 1171.8 | 1152.1 | 1133.7
x1 = 0.7443 | 1238.8 | 1219.3 | 1200.6 | 1181.3 | 1161.9 | 1141.8 | 1123.2
x1 = 0.8089 | 1233.4 | 1213.4 | 1193.9 | 1174.3 | 1154.1 | 1134 | 1114.4
x1 = 0.8736 | 1229.8 | 1209.1 | 1189.2 | 1169.1 | 1147.8 | 1127.2 | 1106.9
x1 = 0.9412 | 1227.4 | 1206.1 | 1185.6 | 1164.6 | 1142.5 | 1121.4 | 1100.4
x1 = 1 | 1226.6 | 1204.6 | 1183.6 | 1162.2 | 1139.1 | 1117.8 | 1095.7

C=CC(=O)OC [methyl propenoate] + CCCCO
speed of sound [m/s]
Conditions | 288.15 K | 293.15 K | 298.15 K | 303.15 K | 308.15 K | 313.15 K | 318.15 K
x1 = 0.0777 | 1271.2 | 1250.8 | 1230.5 | 1212.8 | 1193.9 | 1174.9 | 1155
x1 = 0.1555 | 1261.3 | 1240.6 | 1220.1 | 1202.2 | 1182.9 | 1163.7 | 1143.8
x1 = 0.2273 | 1253.3 | 1232.6 | 1212.2 | 1194.2 | 1174.7 | 1155.5 | 1135.6
x1 = 0.299 | 1247 | 1226.3 | 1205.9 | 1187.7 | 1167.9 | 1148.7 | 1128.7
x1 = 0.3791 | 1241.3 | 1220.5 | 1200.2 | 1181.7 | 1161.6 | 1142.2 | 1122.1
x1 = 0.4593 | 1236.9 | 1216.1 | 1195.7 | 1176.8 | 1156.4 | 1136.8 | 1116.5
x1 = 0.5344 | 1233.9 | 1212.8 | 1192.4 | 1173.1 | 1152.4 | 1132.5 | 1111.9
x1 = 0.6095 | 1231.7 | 1210.5 | 1189.9 | 1170.3 | 1149.2 | 1128.9 | 1108
x1 = 0.6789 | 1230.3 | 1208.9 | 1188.2 | 1168.2 | 1146.7 | 1126.2 | 1104.9
x1 = 0.7483 | 1229.2 | 1207.7 | 1186.9 | 1166.6 | 1144.6 | 1123.8 | 1102.3
x1 = 0.8099 | 1228.5 | 1206.9 | 1186 | 1165.4 | 1143.1 | 1122.1 | 1100.4
x1 = 0.8715 | 1228 | 1206.2 | 1185.3 | 1164.4 | 1141.7 | 1120.6 | 1098.6
x1 = 0.9358 | 1227.4 | 1205.5 | 1184.5 | 1163.4 | 1140.4 | 1119 | 1096.9
x1 = 1 | 1226.6 | 1204.6 | 1183.6 | 1162.2 | 1139.1 | 1117.8 | 1095.7
